Data as given in PubChem BioAssay AID330 (DTP/NCI, 2004).
Several values for one entry are separate records, joined by “and”; a condition that tells them apart may be missing. Identical values can stand only once. Inconclusive results and toxic doses are left out. Rule for the calls: active = survival T/C of 150% or more; inactive = T/C below 125% in these data.

System: P388 leukemia ip, CD2F1 mice, survival T/C
Assay: NCI In Vivo Anticancer Drug Screen. Data for tumor model P388 Leukemia (intraperitoneal) in CD2F1 (CDF1) mice
Conditions: endpoint: median survival time, higher = longer survival
Summary of the method: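 Mice carrying the transplanted tumor received test compound or vehicle. Survival was recorded in each group, and the value is the treated-group measurement divided by that of the vehicle-treated control group.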

[1] = dose: 100.0 mg/kg/injection, schedule: Q04DX002 (ip), vehicle: saline
[2] = dose: 100.0 mg/kg/injection, schedule: Q04DX002 (ip), vehicle: saline with Tween-80
[3] = dose: 200.0 mg/kg/injection, schedule: Q04DX002 (ip), vehicle: saline with Tween-80
[4] = dose: 12.5 mg/kg/injection, schedule: Q01DX009 (ip), vehicle: saline with Tween-80
[5] = dose: 25.0 mg/kg/injection, schedule: Q01DX009 (ip), vehicle: saline with Tween-80
[6] = dose: 50.0 mg/kg/injection, schedule: Q01DX009 (ip), vehicle: saline with Tween-80
[7] = dose: 50.0 mg/kg/injection, schedule: Q01DX005 (ip), vehicle: Klucel (hydroxypropylcellulose) (HPC)
[8] = dose: 60.0 mg/kg/injection, schedule: Q01DX005 (ip), vehicle: saline with Tween-80
[9] = dose: 120.0 mg/kg/injection, schedule: Q01DX005 (ip), vehicle: saline with Tween-80
[10] = dose: 240.0 mg/kg/injection, schedule: Q01DX005 (ip), vehicle: saline with Tween-80
[11] = dose: 100.0 mg/kg/injection, schedule: Q01DX009 (ip), vehicle: saline with Tween-80
[12] = dose: 200.0 mg/kg/injection, schedule: Q01DX009 (ip), vehicle: saline with Tween-80
[13] = dose: 50.0 mg/kg/injection, schedule: Q01DX005 (ip), vehicle: saline with Tween-80
[14] = dose: 100.0 mg/kg/injection, schedule: Q01DX005 (ip), vehicle: saline with Tween-80
[15] = dose: 200.0 mg/kg/injection, schedule: Q01DX005 (ip), vehicle: saline with Tween-80

Measured: T/C

[Cl][Sn]1([Cl])[CH2]CC[CH2][Sn]([Cl])([Cl])[CH2]CC[CH2]1
inactive: dose: 25.0 mg/kg/injection, schedule: Q01DX001 (ip), vehicle: saline 107 % of control | dose: 50.0 mg/kg/injection, schedule: Q01DX001 (ip), vehicle: saline 107 % of control | dose: 100.0 mg/kg/injection, schedule: Q01DX001 (ip), vehicle: saline 120 % of control | [1] 109 % of control

Nc1[nH]c(=O)ncc1CS(=O)(=O)O
inactive: dose: 50.0 mg/kg/injection, schedule: Q04DX002 (ip), vehicle: saline with Tween-80 97 % of control | [2] 108 % of control | [3] 107 % of control

N#Cc1nnn(Cc2ccccc2)c1N
inactive: dose: 6.25 mg/kg/injection, schedule: Q01DX009 (ip), vehicle: saline with Tween-80 110 % of control | [4] 110 % of control | [5] 108 % of control | [6] 98 % of control and 86 % of control

CC(=O)Nc1cc2c(cc1Br)-c1ccccc1C2O (centres undefined)
inactive: dose: 0.63 mg/kg/injection, schedule: Q01DX009 (ip), vehicle: saline with Tween-80 100 % of control | dose: 1.25 mg/kg/injection, schedule: Q01DX009 (ip), vehicle: saline with Tween-80 109 % of control | dose: 2.5 mg/kg/injection, schedule: Q01DX009 (ip), vehicle: saline with Tween-80 109 % of control | dose: 5.0 mg/kg/injection, schedule: Q04DX003 (ip), vehicle: saline with Tween-80 90 % of control | dose: 10.0 mg/kg/injection, schedule: Q04DX003 (ip), vehicle: saline with Tween-80 104 % of control | dose: 20.0 mg/kg/injection, schedule: Q01DX009 (ip), vehicle: saline with Tween-80 90 % of control | dose: 20.0 mg/kg/injection, schedule: Q04DX003 (ip), vehicle: saline with Tween-80 100 % of control

CCCSP(=S)(c1ccc(Cl)cc1)c1ccc(Cl)cc1
inactive: [1] 106 % of control | dose: 200.0 mg/kg/injection, schedule: Q04DX002 (ip), vehicle: saline 103 % of control | dose: 400.0 mg/kg/injection, schedule: Q04DX002 (ip), vehicle: saline 103 % of control

C[N+]1(C)CCC(C(=O)c2ccccc2)CC1
inactive: dose: 6.25 mg/kg/injection, schedule: Q01DX005 (ip), vehicle: saline 108 % of control | dose: 12.5 mg/kg/injection, schedule: Q01DX005 (ip), vehicle: saline 96 % of control | dose: 25.0 mg/kg/injection, schedule: Q01DX005 (ip), vehicle: saline 95 % of control

CC1(C)C=C(O)C(=O)C(O)=C1
inactive: dose: 15.0 mg/kg/injection, schedule: Q01DX005 (ip), vehicle: Klucel (hydroxypropylcellulose) (HPC) 102 % of control | dose: 30.0 mg/kg/injection, schedule: Q01DX005 (ip), vehicle: Klucel (hydroxypropylcellulose) (HPC) 102 % of control | [7] 116 % of control | dose: 60.0 mg/kg/injection, schedule: Q01DX005 (ip), vehicle: Klucel (hydroxypropylcellulose) (HPC) 103 % of control

CCC[N+]1=C/c2ccccc2OC(=O)/C=C\1[O-]
inactive: [8] 101 % of control | [9] 99 % of control | [10] 100 % of control

CCNCc1nc2sc3c(c2c(=O)[nH]1)CCCC3
inactive: [6] 105 % of control | [11] 94 % of control | [12] 99 % of control

O=C1CCNC(=O)N1OS(=O)(=O)c1ccccc1
inactive: dose: 50.0 mg/kg/injection, schedule: Q01DX009 (ip), vehicle: Klucel (hydroxypropylcellulose) (HPC) 86 % of control

O=C(O)C1CSCN1 (centres undefined)
inactive: dose: 6.25 mg/kg/injection, schedule: Q01DX009 (ip), vehicle: water 90 % of control and 96 % of control | dose: 12.5 mg/kg/injection, schedule: Q01DX009 (ip), vehicle: water 99 % of control and 96 % of control | dose: 25.0 mg/kg/injection, schedule: Q01DX009 (ip), vehicle: water 98 % of control and 99 % of control | dose: 50.0 mg/kg/injection, schedule: Q01DX009 (ip), vehicle: water 98 % of control and 95 % of control | dose: 100.0 mg/kg/injection, schedule: Q01DX009 (ip), vehicle: water 100 % of control | dose: 200.0 mg/kg/injection, schedule: Q01DX009 (ip), vehicle: water 96 % of control

Cc1cc(C(N)=O)c[n+](C)c1
inactive: dose: 50.0 mg/kg/injection, schedule: Q01DX005 (ip), vehicle: saline 100 % of control | dose: 100.0 mg/kg/injection, schedule: Q01DX005 (ip), vehicle: saline 105 % of control | dose: 200.0 mg/kg/injection, schedule: Q01DX005 (ip), vehicle: saline 107 % of control

COC1(OC)/C(=N/NS(=O)(=O)c2ccc(C)cc2)C2CC1C1CC21 (centres undefined)
inactive: [5] 98 % of control | [6] 96 % of control | [11] 96 % of control

NC(=S)N/N=C\C(CC(O)C(O)CO)=N\NC(N)=S (centres undefined)
inactive: [13] 89 % of control | [14] 95 % of control | [15] 98 % of control

CCCCOn1nnc2ccccc21
inactive: [4] 94 % of control | [5] 103 % of control | [6] 100 % of control and 97 % of control | [11] 101 % of control | [12] 113 % of control

Cc1ccccc1C1C2CCCC(C2=O)C(c2ccccc2C)N1C (centres undefined)
inactive: dose: 100.0 mg/kg/injection, schedule: Q04DX003 (ip), vehicle: saline 100 % of control | dose: 200.0 mg/kg/injection, schedule: Q04DX003 (ip), vehicle: saline 103 % of control | dose: 400.0 mg/kg/injection, schedule: Q04DX003 (ip), vehicle: saline 89 % of control

CCN1C(=O)CSC1=S
inactive: dose: 6.25 mg/kg/injection, schedule: Q04DX002 (ip), vehicle: Klucel (hydroxypropylcellulose) (HPC) 112 % of control | dose: 12.5 mg/kg/injection, schedule: Q04DX002 (ip), vehicle: Klucel (hydroxypropylcellulose) (HPC) 110 % of control | dose: 25.0 mg/kg/injection, schedule: Q04DX002 (ip), vehicle: Klucel (hydroxypropylcellulose) (HPC) 105 % of control | dose: 50.0 mg/kg/injection, schedule: Q04DX002 (ip), vehicle: Klucel (hydroxypropylcellulose) (HPC) 109 % of control

CC(C)(C)CC(C)(C)c1ccc(OCc2cccc(Cl)c2)cc1
inactive: [6] 97 % of control | [11] 96 % of control | [12] 95 % of control

Cc1cc(N(CCCl)CCCl)ccc1CN1CCCN(Cc2ccc(N(CCCl)CCCl)cc2C)C1c1ccccc1O
inactive: [4] 123 % of control

CC[Si](/C=C(/C)C(C)(C)C)(CC)CC
inactive: [6] 94 % of control | [11] 96 % of control | [12] 113 % of control

CCn1c2nc(=O)n(C)c(=O)c-2cc2ccccc21
inactive: [6] 111 % of control | [11] 111 % of control | [12] 116 % of control

Cc1cc2c(c(=O)o1)C1(C)CC(C)(O2)c2c(cc(C)oc2=O)O1
inactive: [8] 99 % of control | [9] 95 % of control | [10] 89 % of control

O=[N+]([O-])c1cc(S(=O)(=O)NCc2ccco2)ccc1N/N=C/c1ccccn1
inactive: [12] 86 % of control

O=c1[nH]cnc2c1CCc1ccccc1-2
inactive: [2] 93 % of control | [3] 100 % of control | dose: 400.0 mg/kg/injection, schedule: Q04DX002 (ip), vehicle: saline with Tween-80 102 % of control

O=C(O)c1cc2cccc(OCc3ccc(Cl)cc3Cl)c2cc1O
inactive: dose: 100.0 mg/kg/injection, schedule: Q04DX002 (ip), vehicle: Klucel (hydroxypropylcellulose) (HPC) 115 % of control | dose: 200.0 mg/kg/injection, schedule: Q04DX002 (ip), vehicle: Klucel (hydroxypropylcellulose) (HPC) 106 % of control | dose: 400.0 mg/kg/injection, schedule: Q04DX002 (ip), vehicle: Klucel (hydroxypropylcellulose) (HPC) 103 % of control

COc1cc(C/C(=C\c2ccc(OC)c(OCc3ccccc3)c2)[N+](=O)[O-])ccc1OCc1ccccc1
inactive: dose: 9.38 mg/kg/injection, schedule: Q04DX003 (ip), vehicle: Klucel (hydroxypropylcellulose) (HPC) 100 % of control | dose: 18.75 mg/kg/injection, schedule: Q04DX003 (ip), vehicle: Klucel (hydroxypropylcellulose) (HPC) 100 % of control | dose: 37.5 mg/kg/injection, schedule: Q04DX003 (ip), vehicle: Klucel (hydroxypropylcellulose) (HPC) 100 % of control

Nc1nc(N)c2c(n1)CCC(C(=O)Nc1ccc(Cl)cc1)C2 (centres undefined)
inactive: [13] 94 % of control | [14] 96 % of control | [15] 96 % of control

COC(=O)C(O)c1ccc2c(c1)OCO2 (centres undefined)
inactive: [11] 90 % of control | [12] 90 % of control | dose: 400.0 mg/kg/injection, schedule: Q01DX009 (ip), vehicle: saline with Tween-80 104 % of control

CSC(=S)N1CC(=O)N(C(=S)SC)CC1=O
inactive: [7] 87 % of control | dose: 100.0 mg/kg/injection, schedule: Q01DX005 (ip), vehicle: Klucel (hydroxypropylcellulose) (HPC) 92 % of control | dose: 200.0 mg/kg/injection, schedule: Q01DX005 (ip), vehicle: Klucel (hydroxypropylcellulose) (HPC) 86 % of control
